This assay deals with recombinant DYRK1A kinase (Homo sapiens (Human), UniProt Q13627). The assay can be described thus: DYRK1A kinase assay (Ser/Thr 18 peptide Z-lyte FRET). In kind it is biochemical. Particulars: DYRK1A kinase activity, Z-lyte Ser/Thr 18 peptide, 15 μM ATP; method text calls the value IC50; read-out: EC50 (the source's name). In short, it runs like this: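 Z-lyte FRET read-out: coumarin (Em 455) over fluorescein (Em 520) emission ratio, converted to percent phosphorylation after 1 h development. Reaction: 0.25 μg/mL kinase, 15 μM ATP, 4 μM peptide, 1 h RT with compound, duplicate wells. IC50s fitted by non-linear regression.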
On to `COc1nc(N[C@H]2C[C@@](C)(NC(=O)OC(C)(C)C)C2)nn2ccc(-c3ccc4nccnc4c3)c12` [Compound 337, tert-Butyl (cis-3-((4-methoxy-5-(quinoxalin-6-yl)pyrrolo[2,1-f][1,2,4]triazin-2-yl)amino)-1-methylcyclobutyl)carbamate], for which the IC50 is 11.5 nM.
As to `CNC(=O)c1cnc2ccc(-c3ccn4nc(N[C@H]5CC[C@@H](OC)CC5)nc(OC)c34)cn12` [Compound 439, 6-(4-Methoxy-2-((cis-4-methoxycyclohexyl)amino)pyrrolo[2,1-f][1,2,4]triazin-5-yl)-N-methylimidazo[1,2-a]pyridine-3-carboxamide], the IC50 came out at 2.3 nM.
For the compound `COc1nc(N[C@@H]2CN(C(C)=O)C[C@@H]2F)nn2ccc(-c3cnc4nccn4c3)c12` [Compound 264, 1-((3S,4R)-3-Fluoro-4-((5-(imidazo[1,2-a]pyrimidin-6-yl)-4-methoxypyrrolo[2,1-f][1,2,4]triazin-2-yl)amino)pyrrolidin-1-yl)ethan-1-one], the IC50 came out at 3.5 nM.
`COc1nc(N[C@H]2C[C@@](C)(O)C2)nn2ccc(-c3ccc4nnn(CC(F)F)c4c3)c12` [Compound 710, (1s,3s)-3-((5-(1-(2,2-Difluoroethyl)-1H-benzo[d][1,2,3]triazol-6-yl)-4-methoxypyrrolo[2,1-f][1,2,4]triazin-2-yl)amino)-1-methylcyclobutan-1-ol]: the IC50 worked out at 0.9 nM.
For the compound `COc1nc(N[C@@H]2CCN(C(C)=O)CC2(F)F)nn2ccc(-c3cc(F)c4nc(C)n(C(C)C)c4c3)c12` [Compound 550, (R)-1-(3,3-Difluoro-4-((5-(4-fluoro-1-isopropyl-2-methyl-1H-benzo[d]imidazol-6-yl)-4-methoxypyrrolo[2,1-f][1,2,4]triazin-2-yl)amino)piperidin-1-yl)ethan-1-one], the IC50 amounted to 1.6 nM.
For `c1cnc2cc(-c3ccn4nc(NC5CCC6(CC5)COC6)nc(OC5COC5)c34)ccc2n1` [Compound 1138, 4-(Oxetan-3-yloxy)-5-(quinoxalin-6-yl)-N-(2-oxaspiro[3.5]nonan-7-yl)pyrrolo[2,1-f][1,2,4]triazin-2-amine] the value was 3.3 nM; for `COc1nc(N[C@H]2C[C@H](C(C)(C)O)C2)nn2ccc(-c3ccc4ncccc4c3)c12` [Compound 287, 2-(trans-3-((4-methoxy-5-(quinolin-6-yl)pyrrolo[2,1-f][1,2,4]triazin-2-yl)amino)cyclobutyl)propan-2-ol], 2.2 nM.
Take `[2H]C([2H])([2H])Oc1nc(N[C@H]2CC[C@](C)(O)CC2)nn2ccc(-c3ccc4nccnc4c3)c12` [Compound 348, trans-4-((4-(Methoxy-d3)-5-(quinoxalin-6-yl)pyrrolo[2,1-f][1,2,4]triazin-2-yl)amino)-1-methylcyclohexan-1-ol]: the IC50 stood at 2.3 nM.
`COc1nc(N[C@H]2CN(C3COC3)C[C@H]2F)nn2ccc(-c3ccc4nccnc4c3)c12` [Compound 356, N-((3S,4R)-4-Fluoro-1-(oxetan-3-yl)pyrrolidin-3-yl)-4-methoxy-5-(quinoxalin-6-yl)pyrrolo[2,1-f][1,2,4]triazin-2-amine]: the IC50 turned out to be 8.8 nM.
On to `COc1nc(N[C@@H]2CCN(C3CCC3)CC2(F)F)nn2ccc(-c3ccc4nc(C)n(CC(F)F)c4c3)c12` [Compound 140, (R)—N-(1-Cyclobutyl-3,3-difluoropiperidin-4-yl)-5-(1-(2,2-difluoroethyl)-2-methyl-1H-benzo[d]imidazol-6-yl)-4-methoxypyrrolo[2,1-f][1,2,4]triazin-2-amine], for which the IC50 was found to be 10.7 nM.
With `COc1nc(N[C@H]2CC[C@](C)(O)CC2)nn2ccc(-c3ccc4nnn(CC(F)(F)F)c4c3)c12` [Compound 911, (1r,4r)-4-((4-Methoxy-5-(1-(2,2,2-trifluoroethyl)-1H-benzo[d][1,2,3]triazol-6-yl)pyrrolo[2,1-f][1,2,4]triazin-2-yl)amino)-1-methylcyclohexan-1-ol], the IC50 amounted to 2.1 nM.
As to `CNC(=O)[C@]1(C)CC[C@H](Nc2nc(OC)c3c(-c4ccc5nnn(C)c5c4)ccn3n2)CC1` [Compound 225, cis-4-((4-Methoxy-5-(1-methyl-1H-benzo[d][1,2,3]triazol-6-yl)pyrrolo[2,1-f][1,2,4]triazin-2-yl)amino)-N,1-dimethylcyclohexane-1-carboxamide], the IC50 is 11.7 nM.
For `COc1nc(N[C@H]2CC[C@@](C)(O)CC2)nn2ccc(-c3cc(F)c4nnn(CC(F)F)c4c3)c12` [Compound 810, (1s,4s)-4-((5-(1-(2,2-Difluoroethyl)-4-fluoro-1H-benzo[d][1,2,3]triazol-6-yl)-4-methoxypyrrolo[2,1-f][1,2,4]triazin-2-yl)amino)-1-methylcyclohexan-1-ol], the IC50 was 10.9 nM.
As for `COc1nc(N[C@H]2CC[C@H](NC(C)=O)CC2)nn2ccc(-c3ccc4nccnc4c3)c12` [Compound 344, N-(trans-4-((4-Methoxy-5-(quinoxalin-6-yl)pyrrolo[2,1-f][1,2,4]triazin-2-yl)amino)cyclohexyl)acetamide], the IC50 stood at 1.8 nM.
The value for `COc1nc(NC2CCOC(C)(C)C2)nn2ccc(-c3cnc4nccn4c3)c12` (stereo not drawn) [Compound 1148, N-(2,2-Dimethyltetrahydro-2H-pyran-4-yl)-5-(imidazo[1,2-a]pyrimidin-6-yl)-4-methoxypyrrolo[2,1-f][1,2,4]triazin-2-amine] was 0.6 nM; that for `COc1nc(N[C@H]2C[C@@H](OCCO)C2)nn2ccc(-c3ccc4nnn(C)c4c3)c12` [Compound 201, 2-(cis-3-((4-Methoxy-5-(1-methyl-1H-benzo[d][1,2,3]triazol-6-yl)pyrrolo[2,1-f][1,2,4]triazin-2-yl)amino)cyclobutoxy)ethan-1-ol] was 2 nM.
The value for `COc1nc(N[C@@H]2CCN(C(C)=O)CC2(F)F)nn2cc(F)c(-c3ccc4ncccc4c3)c12` [Compound 1064, (R)-1-(3,3-Difluoro-4-((6-fluoro-4-methoxy-5-(quinolin-6-yl)pyrrolo[2,1-f][1,2,4]triazin-2-yl)amino)piperidin-1-yl)ethan-1-one] was 2 nM; that for `COc1nc(N[C@H]2CC[C@@H](OCCO)CC2)nn2ccc(-c3ccc4nccn4c3)c12` [Compound 49, 2-((cis-4-((5-(Imidazo[1,2-a]pyridin-6-yl)-4-methoxypyrrolo[2,1-f][1,2,4]triazin-2-yl)amino)cyclohexyl)oxy)ethan-1-ol] was 2.6 nM.
For `COc1nc(NC2CCC3(CC2)COC3)nn2ccc(-c3ccc4nnn(C)c4c3)c12` [Compound 230, 4-Methoxy-5-(1-methyl-1H-benzo[d][1,2,3]triazol-6-yl)-N-(2-oxaspiro[3.5]nonan-7-yl)pyrrolo[2,1-f][1,2,4]triazin-2-amine], the IC50 is 4.2 nM.
Take `COc1nc(N[C@@H]2CN(C)C[C@@H]2F)nn2ccc(-c3ccc4nnn(CC(F)F)c4c3)c12` [Compound 730, 5-(1-(2,2-Difluoroethyl)-1H-benzo[d][1,2,3]triazol-6-yl)-N-((3R,4S)-4-fluoro-1-methylpyrrolidin-3-yl)-4-methoxypyrrolo[2,1-f][1,2,4]triazin-2-amine]: the IC50 is 4.6 nM.
For `COc1nc(N[C@H]2C[C@@](C)(O)C2)nn2ccc(-c3cc4ccncc4[nH]3)c12` [Compound 283, cis-3-((4-Methoxy-5-(1H-pyrrolo[2,3-c]pyridin-2-yl)pyrrolo[2,1-f][1,2,4]triazin-2-yl)amino)-1-methylcyclobutan-1-ol] the value was 110 nM.

The values above are taken from patent publication US20240002391A1, “4-ALKOXYPYRROLO[2,1-F][1,2,4]TRIAZINES AND PREPARATION AND USES THEREOF” (BioSplice Therapeutics, Inc., priority 2022, published 2024).
